Source: paper PMC9416253, “Automated Radiosynthesis, Preliminary In Vitro/In Vivo Characterization of OncoFAP-Based Radiopharmaceuticals for Cancer Imaging and Therapy” (Pharmaceuticals, 2022)
Like-named read-outs stand apart in the source and are kept apart here.

Key:
[1] = target: FAP; design: method as in PMID 33850024; conditions: read-out: dissociation constant; cited from earlier work
[2] = target: T1, recombinant hFAP (Homo sapiens, UniProt Q12884); assay: Co-elution experiment with recombinant hFAP on PD-10 size exclusion columns; type: binding; conditions: 500 kBq radioligand, hFAP 2 μM 100 μL, PD-10 column
T1 sequence (Q12884 1-760): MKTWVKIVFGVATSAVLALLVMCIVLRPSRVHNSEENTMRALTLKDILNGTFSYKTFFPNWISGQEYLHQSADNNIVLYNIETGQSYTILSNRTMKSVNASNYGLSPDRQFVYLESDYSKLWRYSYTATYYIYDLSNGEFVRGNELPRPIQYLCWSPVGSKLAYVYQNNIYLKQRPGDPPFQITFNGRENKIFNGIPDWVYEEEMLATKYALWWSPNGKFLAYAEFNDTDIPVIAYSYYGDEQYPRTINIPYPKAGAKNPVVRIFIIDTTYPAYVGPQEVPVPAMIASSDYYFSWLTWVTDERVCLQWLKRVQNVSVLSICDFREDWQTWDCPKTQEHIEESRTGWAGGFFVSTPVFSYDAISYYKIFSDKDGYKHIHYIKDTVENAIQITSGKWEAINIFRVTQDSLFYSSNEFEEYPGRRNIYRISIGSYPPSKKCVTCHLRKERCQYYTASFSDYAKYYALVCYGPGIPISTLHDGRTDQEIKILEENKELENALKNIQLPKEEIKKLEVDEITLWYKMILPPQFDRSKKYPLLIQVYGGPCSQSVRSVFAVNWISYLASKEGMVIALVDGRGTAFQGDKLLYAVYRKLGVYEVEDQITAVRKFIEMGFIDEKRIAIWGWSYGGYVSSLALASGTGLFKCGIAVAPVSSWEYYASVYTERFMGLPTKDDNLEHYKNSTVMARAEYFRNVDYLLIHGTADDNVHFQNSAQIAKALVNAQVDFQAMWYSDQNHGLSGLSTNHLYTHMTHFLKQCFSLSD
Description: To assess the binding properties of radiolabeled OncoFAP-derivatives preparations to hFAP, [^68Ga]/[^18F]AlF/[^177Lu]-OncoFAP derivatives (500 kBq) were incubated with hFAP (2 μM, 100 μL) and then loaded on PD-10 columns, pre-equilibrated with running buffer (50 mM Tris, 100 mM NaCl, and 1 mM ethylenediaminetetraacetic acid [EDTA], pH = 7.4) and eluted with running buffer. Fractions of the flow through (500 μL) were collected, and the radioactivity intensity was measured immediately on a gamma counter (λ = 511 KeV for gallium-68 and fluorine-18 and λ = 208 KeV for lutetium-177).

[3] = target: hCAIX (Homo sapiens, UniProt Q16790); assay: Co-elution experiment with hCAIX (non-target protein) on PD-10 columns; type: binding; conditions: PD-10 column
Description: NODAGA-OncoFAP labeling with 177Lu and characterization
Figure S1. (A) Radiolabeling reaction scheme of OncoFAP-NODAGA with 177Lu in acetate buffer (pH=4) at 95°C for 15 min. (B) Coelution experiment of [177Lu]Lu-NODAGA-OncoFAP-with hFAP and hCAIX on PD-10 size exclusion chromatography columns. (C) Radio-HPLC analysis performed after labeling reaction.
NODAGA-OncoFAP can be efficiently labeled with 177Lu by heating at 95°C in acetate buffer (pH=4) for 15 min. [Figure S1A] […]
been observed. [Figure S1C] […]

[4] = Lipophilicity by shake-flask method (n-octanol/saline or PBS); type: physicochemical; conditions: room temperature; for LogD7.4: n-octanol/PBS; for LogP: n-octanol/saline solution
Description: Lipophilicity was determined by partitioning between n-octanol and saline solution (LogP) or PBS (LogD7.4) at room temperature using the conventional shake-flask method. An aliquot of the formulated solution containing ~500 kBq of radiopharmaceuticals was added to a tube containing 6 mL of n-octanol/saline solution or n-octanol/PBS (1:1 v/v, LogP or LogD7.4, respectively). The tubes were shaken for 20 min, followed by centrifugation (5000× g for 5 min) and separation of the phases. Aliquots of 1 mL of the organic and the aqueous phases were taken, and the activity was measured using an automated gamma counter. The LogP or LogD7.4 were calculated as the decadic logarithm of [activity (cpm/mL) in n-octanol]/[(activity (cpm/mL) in saline solution or PBS].

[5] = tested on: SK-RC-52.hFAP cells; assay: Cell binding assay on FAP-positive SK-RC-52.hFAP cells; type: cell-based; conditions: 0.1 MBq, 37 °C, 1.5 × 10^5 cells each tube
Description: Cell binding assays were performed in triplicate on SK-RC-52.hFAP and SK-R-RC-52.wt cells (density of 1.5 × 10^5 cells each tube), growth in RPMI-1640 medium (Gibco) containing 10% Fetal Bovine Serum (Gibco) and 1% Antibiotic-Antimycotic (Gibco) at 37 °C in 5% carbon dioxide (CO2). After adding [^68Ga]Ga-DOTAGA-OncoFAP, [^177Lu]Lu-DOTAGA-OncoFAP or [^18F]AlF-NOTA-OncoFAP (10 µL, 0.1 MBq) to the culture medium, the cells were incubated at 37 °C for 10, 30, 60 min for ^68Ga-derivatives and 10, 30, 60, 120, 240 min for ^18F-derivatives or 10, 30, 60, 120, 240, 360 min and 24 and 48 h for the ^177Lu-derivative. As a control, nonspecific binding determination was carried out by incubating with the OncoFAP derivatives complex with the non-radioactive isotopes reference standard (100 µM) with the same cell lines for 5 min before incubation with the radiolabeled compounds. After incubation, the cell pellets were washed twice with 1 mL of cold PBS (pH 7.4), centrifuged (400× g, 5 min) and the pellet measured by an automatic gamma counter (WIZARD2, PerkinElmer, Waltham, MA, USA).

[6] = tested on: HT-1080.hFAP tumors; assay: In vivo biodistribution in mice bearing subcutaneous HT-1080.hFAP tumors
Description: Tumor cells were grown to 80% confluence in Dulbecco’s Modified Eagle Medium (DMEM) supplemented with 10% Fetal Bovine Serum (Thermofisher, Waltham, MA, USA) and 1% antibiotic-antimycotic (Gibco) and detached with Trypsin-EDTA 0.05%. HT-1080.hFAP, cells (FAP positive cells) were resuspended in Hanks’ Balanced Salt Solution medium. Aliquots of 5 × 10^6 cells (100 μL of suspension) were injected subcutaneously in the right flanks of female athymic Balb/c AnNRj-Foxn1 mice (6 to 8 weeks of age, Janvier-labs, Le Genest-Saint-Isle, France). Female athymic Balb/c AnNRj-Foxn1 mice (6 to 8 weeks of age) were implanted in the right flank with HT-1080.hFAP tumors as described above. Tumors were allowed to grow to an average volume of 250 mm^3. Mice were randomized (n = 5 per group) and injected intravenously with radiolabeled preparations of [^18F]AlF-NOTA-OncoFAP (10 nmol/mice; 77 kBq; RCP:89%). Mice were euthanized 1 h after the injection by CO2 asphyxiation. Organs were extracted, weighted, and radioactivity was measured with a Packard Cobra Gamma Counter. Values are expressed as percent ID/g ± SD.

[7] = tested on: FAP-expressing tumor models; design: method as in PMID 34957527; conditions: cited from earlier work
[8] = In vitro stability in saline solution (bulk solution), HPLC/iTLC; type: physicochemical
Description: The in vitro stability of the radiopharmaceuticals preparations in saline solution was evaluated on the bulk solution i.e., with the highest radioactive concentration. In addition, the in vitro stability of radiopharmaceutical preparations was tested by incubating 10 MBq of each radiolabeled compounds in 1 mL of human plasma at 37 °C. Small aliquots of bulk solution were analyzed by HPLC and iTLC and 10 µL of plasma solution were analyzed by iTLC at 30, 60, 90, 120, 150 and 180 min for [^68Ga]Ga-DOTAGA/NODAGA-OncoFAP derivatives, 50, 100, 150 and 200-min for [^18F]AlF-NOTA/NODAGA-OncoFAP or 1, 3, 6, 12, 24, and 2, 3, 4, 7 and 9 days for [^177Lu]Lu-DOTAGA-OncoFAP, as show in Figure 3.

[9] = tested on: FAP-positive tumor; design: method as in PMID 35589404; conditions: cited from earlier work
[10] = 1-h time point, 500 nmol/kg i.v.

In the case of `N#C[C@@H]1CC(F)(F)CN1C(=O)CNC(=O)c1ccnc2c(NC(=O)CCC(=O)O)cccc12` [OncoFAP], the Kd [1] is listed as 0.68 nM.

In the case of `N#C[C@@H]1CC(F)(F)CN1C(=O)CNC(=O)c1ccnc2c(NC(=O)CCC(=O)NCCNC(=O)CCC(C(=O)[O-])N3CCN(CC(=O)[O-])CCN(CC(=O)[O-])CC3)cccc12.[177Lu+3]` (stereo partly shown) [[177Lu]Lu-NODAGA-OncoFAP], the “complex formation with recombinant hFAP (co-elution)” value [2] is reported as “strong affinity” and the “interaction with hCAIX (co-elution)” value [3] is reported as “no significant interaction”.

Compound `N#C[C@@H]1CC(F)(F)CN1C(=O)CNC(=O)c1ccnc2c(NC(=O)CCC(=O)NCCNC(=O)CCC(C(=O)O)N3CCN(CC(=O)[O-])CCN(CC(=O)[O-])CC3)cccc12.[18F][Al+2]` (stereo partly shown) [[^18F]AlF-NODAGA-OncoFAP] has a LogD7.4 [4] of -2.88±0.16 and a LogP [4] of -3.02± 015.

In the case of `N#C[C@@H]1CC(F)(F)CN1C(=O)CNC(=O)c1ccnc2c(NC(=O)CCC(=O)N3CCN(C(=O)CN4CCN(CC(=O)[O-])CCN(CC(=O)[O-])CC4)CC3)cccc12.[18F][Al+2]` [[^18F]AlF-NOTA-OncoFAP], the LogD7.4 [4] is reported as -2.01± 0.25, the LogP [4] is reported as -2.15± 0.18 and the absolute binding value [5] is reported as 0.25%. The tumor-to-blood ratio [6, 10] was 6.5, the tumor-to-kidney ratio [6, 10] was 4.3 and the tumor accumulation ([6]; 1 h post intravenous injection, 500 nmol/kg, HT-1080.hFAP) was 6.6 % ID/g.

For `N#C[C@@H]1CC(F)(F)CN1C(=O)CNC(=O)c1ccnc2c(NC(=O)CCC(=O)NCCNC(=O)CCC(C(=O)O)N3CCN(CC(=O)[O-])CCN(CC(=O)[O-])CCN(CC(=O)[O-])CC3)cccc12.[68Ga+3]` (stereo partly shown) [[^68Ga]Ga-DOTAGA-OncoFAP], the “complex formation with recombinant hFAP (co-elution)” value [2] was “forms a stable complex”, the LogD7.4 [4] was -2.39 ± 0.12 and the LogP [4] was -2.57± 0.15. The tumor-to-blood ratio ([7]; at 1 h p.i.) was 8.6 ± 5.1 and the tumor-to-blood ratio ([7]; at 3 h p.i.) was 38.1 ± 33.1.

Work on `N#C[C@@H]1CC(F)(F)CN1C(=O)CNC(=O)c1ccnc2c(NC(=O)CCC(=O)NCCNC(=O)CCC(C(=O)[O-])N3CCN(CC(=O)[O-])CCN(CC(=O)[O-])CC3)cccc12.[68Ga+3]` (stereo partly shown) [[^68Ga]Ga-NODAGA-OncoFAP] yielded a LogD7.4 [4] of -2.48± 0.09 and a LogP [4] of -2.68± 0.14.

Compound `N#C[C@@H]1CC(F)(F)CN1C(=O)CNC(=O)c1ccnc2c(NC(=O)CCC(=O)N3CCN(C(=O)CN4CCN(CC(=O)[O-])CCN(CC(=O)[O-])CC4)CC3)cccc12.[68Ga+3]` [[^68Ga]Ga-NOTA-OncoFAP] has a LogD7.4 [4] of -2.19± 0.11 and a LogP [4] of -2.38± 0.11.

For `N#C[C@@H]1CC(F)(F)CN1C(=O)CNC(=O)c1ccnc2c(NC(=O)CCC(=O)NCCNC(=O)CCC(C(=O)O)N3CCN(CC(=O)[O-])CCN(CC(=O)[O-])CCN(CC(=O)[O-])CC3)cccc12.[177Lu+3]` (stereo partly shown) [[^177Lu]Lu-DOTAGA-OncoFAP], the radiolysis ([8]; every 24 h, without gentisic acid) was “about 10%”, the “stability at high radioactive concentrations” value ([8]; in words, without stabilizer) was “intrinsic instability” and the radiolysis ([8]; within 8 days, with addition of 20 mg of gentisic acid as radical scavenger) was “about 2%”. The LogD7.4 [4] was -1.85± 0.05, the LogP [4] was -2.01± 0.08 and the “uptake in the FAP-positive tumor” value ([9]; 10 min after injection) was 32 % injected dose [ID]/g. The tumor uptake ([9]; at 24 h p.i.) was ~ 4 % ID/g and the “sustained uptake in the lesions” value ([9]; over the first 6 h time window) was “higher than 20 % ID/g”.
